{
  "source": "paper PMC7383075",
  "about": "(Journal of Nuclear Medicine, 2020)",
  "origin": "cited, not measured here",
  "key": {"[1]": {"system": "insulinomas", "details": "at the proper dilution; ref [23]", "from_the_text": "A targeted approach, as described in this study, has the benefit of creating signals with higher contrast between the target and surrounding tissue and therefore more precise delineation of the lesion. […] Re ..."}, "[2]": {"system": "primary breast cancer lesions, as well as peritoneal metastases of colorectal cancer", "details": "primary breast cancer lesions and peritoneal metastases of colorectal cancer; ref [29],[30]", "from_the_text": "Contributing to the potential for clinical translation of this tracer is the use of the NIR fluorophore IRDye 800CW. This dye is widely used in the development of targeted fluorescence imaging approaches, and several studies already have shown the first successful clinical applications using this fluorophore. […] Also, IRDye 800CW coupled to the monoclonal antibody cetuximab was successfully used fo ..."}},
  "data": [
    {"compound": "CN(C)c1ccc2nc3ccc(=[N+](C)C)cc-3sc2c1", "note": "[methylene blue]", "values": [
      {"measurement": "uptake in insulinomas versus normal pancreatic tissue", "setting": "[1]", "value": "higher uptake in insulinomas than in normal pancreatic tissue"}
    ]},
    {"compound": "IRDye 800CW coupled to the monoclonal antibody bevacizumab: IRDye 800CW coupled to the monoclonal antibody bevacizumab", "values": [
      {"measurement": "detection of cancer lesions", "setting": "[2]", "value": "shown to be feasible"}
    ]}
  ]
}
